Results taken from patent US20130079345A1, “[…] ACTIVE DISUBSTITUTED TRIAZINE DERIVATIVES” (BAYER INTELLECTUAL PROPERTY GMBH, priority 2010, published 2013).

Experiments:
CDK9/Cyclin T1 = biological target: T1, CDK9/Cyclin T1 (Homo sapiens, UniProt P50750); assay: LanthaScreen Eu Kinase Binding Assay, CDK9/Cyclin T1; settings: tracer 236, read-out: Affinity (Kd) CDK9/Cyclin T1
T1 construct: purchased Invitrogen
Protocol: (§1) This protocol describes how the LanthaScreen Eu Kinase Binding Assay was performed to determine dissociation constants (Kd) of compounds of general formula (I) and CDK/Cyclin complexes. The principle behind this assay is based upon the binding and displacement of an Alexa Fluor 647-labeled tracer, which binds to the active site of kinases. Binding of the tracer to the kinase is detected using a Eu-labeled antibody. Simultaneous binding of both the tracer and antibody to the kinase gives rise to a FRET-signal. Binding of an inhibitor to the kinase competes for binding with the tracer, resulting in a loss of FRET.
(§2) The compounds of general formula (I) summarized in Table 1 were diluted from a 10 mM DMSO stock solution 1:10 in a total volume of 15 μL DMSO. This compound predilution was then serial diluted 1:3 over 8 steps in DMSO and briefly spun down. Each compound solution was now diluted 1:33.33 in kinase buffer (HEPES: 20 mM, pH: 8.0; MgCl2: 10 mM; DTT: 1 mM; Brij-35: 0.01%), mixed thoroughly and spun down. For every sample, 5 μL of the diluted compound were mixed with 5 μL tracer working solution (e.g. 60 nM tracer 236 in kinase buffer for CDK2/Cyclin A) and 5 μL CDK/Cyclin/Anti-GST-AB-working solution (e.g. 15 nM CDK2/Cyclin A, 1:250 dilution of Anti-GST-AB in kinase buffer) in a well of a small volume 384 well plate (Corning Incorporated, Corning, N.Y., USA; order no. 3673). […] For positive controls, in each well 5 μL of DMSO working solution (3% DMSO diluted in kinase buffer) was mixed with 5 μL CDK/Cyclin/Anti-GST-AB-working solution: (e.g. 15 nM CDK2/Cyclin A, 1:250 dilution of Anti-GST-AB in kinase buffer) and 5 μL Tracer working solution (e.g. 60 nM Tracer 236 in kinase buffer for CDK2/Cyclin A). Positive and negative controls were calculated from at least 8 different sample wells. The 384 well plates were mixed in a Teleshaker plate mixer (Beckman Coulter, Brea, Calif., USA) at 2000 rpm for 40 sec, and incubated for 1 h at room temperature before reading. The FRET signal was measured at 340 nm excitation, 665 nm and 615 nm emission (for the kinase tracer and LanthaScreen Eu-AB, respectively) with an Envision spectrophotometer (Perkin Elmer, Waltham, Mass., USA) with 50 μs delay and 300 μs integration time. Kd values were determined from the sigmoidal dose response curves with the software Quattro Workflow (Quattro GmbH, Munich, Germany).

CDK9/Cyclin K = biological target: T2, CDK9/Cyclin K (Homo sapiens, UniProt P50750); assay: LanthaScreen Eu Kinase Binding Assay, CDK9/Cyclin K; settings: tracer 236, read-out: Affinity (Kd) CDK9/Cyclin K
T2 construct: purchased Invitrogen
T2 sequence (P50750 whole entry): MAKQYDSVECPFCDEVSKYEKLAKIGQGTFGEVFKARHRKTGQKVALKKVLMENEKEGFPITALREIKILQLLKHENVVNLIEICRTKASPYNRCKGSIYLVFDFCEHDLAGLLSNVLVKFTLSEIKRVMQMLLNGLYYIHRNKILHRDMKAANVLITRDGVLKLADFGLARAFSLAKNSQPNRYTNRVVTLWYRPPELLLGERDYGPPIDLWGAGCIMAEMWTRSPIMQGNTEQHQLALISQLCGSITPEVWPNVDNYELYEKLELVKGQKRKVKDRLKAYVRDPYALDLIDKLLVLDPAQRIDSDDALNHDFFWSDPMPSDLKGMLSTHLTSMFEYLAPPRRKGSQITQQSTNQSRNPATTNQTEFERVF
T2 sequence (O75909 whole entry partner): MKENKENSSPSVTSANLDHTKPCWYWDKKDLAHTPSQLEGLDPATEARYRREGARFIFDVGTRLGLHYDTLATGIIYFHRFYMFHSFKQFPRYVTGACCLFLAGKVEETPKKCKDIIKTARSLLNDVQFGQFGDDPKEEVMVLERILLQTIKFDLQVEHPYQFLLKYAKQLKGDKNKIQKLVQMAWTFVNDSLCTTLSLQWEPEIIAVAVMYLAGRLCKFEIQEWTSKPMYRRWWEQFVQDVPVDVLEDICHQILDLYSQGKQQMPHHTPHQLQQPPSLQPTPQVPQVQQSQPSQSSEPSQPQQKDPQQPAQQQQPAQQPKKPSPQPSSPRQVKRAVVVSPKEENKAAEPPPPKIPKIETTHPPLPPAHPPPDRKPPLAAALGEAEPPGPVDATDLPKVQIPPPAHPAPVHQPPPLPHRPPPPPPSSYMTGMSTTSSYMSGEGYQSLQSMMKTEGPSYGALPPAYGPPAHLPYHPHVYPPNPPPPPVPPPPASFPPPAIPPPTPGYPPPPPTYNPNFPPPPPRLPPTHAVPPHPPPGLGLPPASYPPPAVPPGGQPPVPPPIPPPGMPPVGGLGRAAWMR
Protocol: as §1, §2

CDK8/Cyclin C = biological target: T3, CDK8/Cyclin C (Homo sapiens, UniProt P49336); assay: LanthaScreen Eu Kinase Binding Assay, CDK8; settings: tracer 236, read-out: Affinity (Kd) CDK8
T3 construct: purchased Invitrogen
T3 sequence (P49336 whole entry): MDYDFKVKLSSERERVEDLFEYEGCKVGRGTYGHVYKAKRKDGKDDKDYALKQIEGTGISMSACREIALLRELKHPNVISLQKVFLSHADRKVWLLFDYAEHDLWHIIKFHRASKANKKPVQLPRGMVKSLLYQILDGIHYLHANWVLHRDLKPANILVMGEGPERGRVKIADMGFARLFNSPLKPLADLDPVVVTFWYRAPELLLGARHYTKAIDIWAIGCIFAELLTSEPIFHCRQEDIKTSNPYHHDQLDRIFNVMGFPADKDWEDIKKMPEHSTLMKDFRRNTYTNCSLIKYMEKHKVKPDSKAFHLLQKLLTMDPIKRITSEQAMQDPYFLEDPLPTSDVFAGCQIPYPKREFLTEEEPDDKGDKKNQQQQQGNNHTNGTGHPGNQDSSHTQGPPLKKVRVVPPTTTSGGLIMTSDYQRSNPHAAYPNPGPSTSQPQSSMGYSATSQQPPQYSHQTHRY
T3 sequence (P24863 whole entry partner): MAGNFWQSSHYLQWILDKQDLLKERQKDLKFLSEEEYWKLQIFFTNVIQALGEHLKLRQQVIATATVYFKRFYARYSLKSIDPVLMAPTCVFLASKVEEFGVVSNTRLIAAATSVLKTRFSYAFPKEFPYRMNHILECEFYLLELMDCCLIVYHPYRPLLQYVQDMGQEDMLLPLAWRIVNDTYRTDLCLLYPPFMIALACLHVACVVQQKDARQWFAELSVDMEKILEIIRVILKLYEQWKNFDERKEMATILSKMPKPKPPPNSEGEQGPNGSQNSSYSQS
Protocol: as §1, §2

CDK7/CyclinH/Mat1 = biological target: T4, CDK7/CyclinH/Mat1 (Homo sapiens, UniProt P50613); assay: LanthaScreen Eu Kinase Binding Assay, CDK7; settings: tracer 236, read-out: Affinity (Kd) CDK7
T4 construct: purchased Carna Biosciences
T4 sequence (P50613 whole entry): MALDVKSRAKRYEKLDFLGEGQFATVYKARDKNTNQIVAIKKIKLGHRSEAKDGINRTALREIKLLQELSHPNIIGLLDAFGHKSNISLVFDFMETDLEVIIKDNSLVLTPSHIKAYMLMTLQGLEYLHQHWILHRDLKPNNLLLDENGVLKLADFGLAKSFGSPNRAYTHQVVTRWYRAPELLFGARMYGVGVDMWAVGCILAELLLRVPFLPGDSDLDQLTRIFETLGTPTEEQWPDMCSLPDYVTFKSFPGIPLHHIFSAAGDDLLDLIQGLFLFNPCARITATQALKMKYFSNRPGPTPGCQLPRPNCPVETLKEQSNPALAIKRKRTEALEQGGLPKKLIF
T4 sequence (P51946 whole entry partner): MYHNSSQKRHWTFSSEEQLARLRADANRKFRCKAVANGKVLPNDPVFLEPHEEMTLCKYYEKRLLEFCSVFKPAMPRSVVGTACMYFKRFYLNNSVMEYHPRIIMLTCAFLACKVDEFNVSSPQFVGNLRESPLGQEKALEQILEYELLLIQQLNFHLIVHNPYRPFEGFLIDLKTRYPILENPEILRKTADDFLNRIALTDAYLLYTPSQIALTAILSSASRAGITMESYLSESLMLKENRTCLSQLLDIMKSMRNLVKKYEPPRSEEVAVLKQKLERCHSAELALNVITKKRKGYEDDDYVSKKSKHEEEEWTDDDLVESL
T4 sequence (P51948 whole entry partner): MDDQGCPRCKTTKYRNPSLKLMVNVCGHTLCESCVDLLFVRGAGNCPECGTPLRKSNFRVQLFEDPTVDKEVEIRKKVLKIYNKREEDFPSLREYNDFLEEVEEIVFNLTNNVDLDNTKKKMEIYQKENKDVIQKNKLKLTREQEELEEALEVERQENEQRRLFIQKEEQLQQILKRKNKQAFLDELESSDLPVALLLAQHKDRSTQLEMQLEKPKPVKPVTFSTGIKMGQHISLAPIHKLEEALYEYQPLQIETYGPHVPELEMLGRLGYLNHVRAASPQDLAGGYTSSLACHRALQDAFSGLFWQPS
Protocol: as §1, §2

CDK2/CyclinA = biological target: T5, CDK2/CyclinA (Homo sapiens, UniProt P24941); assay: LanthaScreen Eu Kinase Binding Assay, CDK2; settings: tracer 236, read-out: Affinity (Kd) CDK2
T5 construct: purchased Proqinase
Protocol: as §1, §2

[1] = system: LPS-induced TNF alpha release in PBMCs; assay: TNF alpha release assay; format: cell-based; settings: Homo sapiens, PBMC, 6 h, 1 μg/mL LPS
Protocol: Freshly isolated peripheral blood mononuclear cells (PBMCs) were seeded in 96-well cell culture plates with 200,000 cells in 100 μl cell culture medium (DMEM cell culture medium+glutamine from PAN Biotech GmbH, Aidenbach, Germany) supplemented with 10% fetal calf serum (PAA Laboratories GmbH, Pasching, Austria) per well and incubated overnight at 37° C., 5% CO2. To each well, 100 μL cell culture medium with 2× concentrated test compounds diluted from 10 mM DMSO stocks, or 100 μL DMEM with 0.4% DMSO for control wells, was added. The compounds of general formula (I) summarized in Table 6 were used in this assay. After incubation for 1 h at 37° C., 5% CO2, cells were stimulated with 1 μg/mL LPS (Lipopolysaccharides, Sigma, catalog #L4391-1MG; 1 mg/ml stock solution), or left untreated for negative controls, and plates were incubated for 6 h at 37° C./5% CO2. The cell culture plates were centrifuged at 2000 rpm for 5 minutes, and supernatants were transferred to fresh 96-well polypropylene plates. 25 µL of supernatants were transferred into 96-well-plates of the human TNF alpha-tissue culture kit (Meso Scale Discovery, Gaithersburg, Md., USA), and manufacturer's instructions were followed for analysis of TNF alpha levels. Chemoluminescence was measured in the Mesoscale Sector Imager, and EC50 values were calculated with the software Excel Fit (IDBS, Guildford, UK) from 2-fold dilution series comprising at least 6 concentrations in duplicates.

[2] = system: NF-kappaB reporter gene activation in HEK293 cells; assay: NF-kappaB reporter assay; format: cell-based; settings: Homo sapiens, 20 ng/ml TNF alpha, 5 h
Protocol: Cells were maintained in RPMI cell culture medium+glutamine (PAN Biotech GmbH, Aidenbach, Germany) supplemented with 10% fetal calf serum (PAA Laboratories GmbH, Pasching, Austria) and grown at 37° C., 5% CO2. HEK293 cells grown to 50% confluence were transfected with the Amaxa® Cell Line Nucleofector® Kit V (Lonza, Basel, Switzerland, catalog #VCA-1003). Transfections were performed according to manufacturer's optimized protocol for transfection of HEK293 cells. In brief, 2×10^5 cells were transfected with 5 μg highly purified plasmid DNA. Cells were transfected with a NF-kappa B reporter plasmid (pNFkBluc), pTALluc for control, or pMAXGFP for transfection control. After transfection, cells were taken up in 500 μL RPMI1640 cell culture medium, incubated for 1 h at 37° C., and 4.5 ml DMEM without phenol red were added per transfection. Transfected cells were seeded in 96 well plates (Greiner Bio-One, Frickenhausen, Germany, catalog #655098) with 100 μL cell suspension per well and incubated for 48 h. To each well, 100 μL DMEM with 2× concentrated compound diluted from 10 mM DMSO stocks, or 100 μL DMEM with 0.4% DMSO for control wells, was added. The compounds of general formula (I) summarized in Table 6 were used in this assay. Cells were stimulated with 20 ng/ml TNF alpha, and plates were incubated for 5 h at 37° C./5% CO2. Cell culture supernatants were removed to leave 100 μl medium per well, followed by addition of 100 μl Bright Glo luciferase assay reagent (Promega, Madison, Wis., USA, catalog #E2620), and shaking for 5 minutes in the dark. Luminescence was measured with a Victor Photospectrometer (Perkin Elmer, Waltham, Mass., USA). […], values were calculated with the software Excel Fit (IDBS, Guildford, UK) from 2-fold dilution series comprising at least 10 concentrations in duplicates.

T1 sequence (P50750 whole entry): as the sequence (P50750 whole entry) above
T1 sequence (O60563 whole entry partner): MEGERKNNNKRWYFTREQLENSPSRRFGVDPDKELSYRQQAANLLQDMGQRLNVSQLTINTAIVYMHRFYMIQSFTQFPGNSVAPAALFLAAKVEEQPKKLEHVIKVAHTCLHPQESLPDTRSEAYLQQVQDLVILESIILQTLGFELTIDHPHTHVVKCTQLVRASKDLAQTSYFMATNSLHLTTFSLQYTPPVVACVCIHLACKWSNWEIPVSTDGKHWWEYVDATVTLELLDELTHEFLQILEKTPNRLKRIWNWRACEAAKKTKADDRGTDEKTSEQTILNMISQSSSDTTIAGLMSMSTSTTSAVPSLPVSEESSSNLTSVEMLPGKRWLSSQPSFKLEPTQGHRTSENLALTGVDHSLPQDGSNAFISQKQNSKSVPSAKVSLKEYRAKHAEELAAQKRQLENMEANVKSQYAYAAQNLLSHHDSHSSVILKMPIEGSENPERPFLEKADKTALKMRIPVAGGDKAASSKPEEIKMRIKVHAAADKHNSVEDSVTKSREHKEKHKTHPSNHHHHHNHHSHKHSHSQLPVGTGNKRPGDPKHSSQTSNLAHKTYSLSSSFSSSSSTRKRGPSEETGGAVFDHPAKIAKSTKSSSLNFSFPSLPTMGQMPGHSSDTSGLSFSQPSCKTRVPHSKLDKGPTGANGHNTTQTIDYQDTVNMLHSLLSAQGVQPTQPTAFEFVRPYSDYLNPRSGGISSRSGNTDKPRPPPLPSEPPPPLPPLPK

COc1ccccc1-c1ncnc(Nc2cccc(NC(=O)Nc3ccccc3)c2)n1 [Compound N1, N-[3-((4-(2-Methoxyphenyl)-1,3,5-triazin-2-yl)amino)phenyl]-N′-phenyl-urea]
Kd (CDK9/Cyclin T1): 0.478 µM
Kd (CDK9/Cyclin K): 0.159 µM
Kd (CDK8/Cyclin C): > 10 µM
Kd (CDK7/CyclinH/Mat1): > 30 µM
Kd (CDK2/CyclinA): 2.36 µM
IC50 [1]: 6.71 µM
IC50 [2]: 18.4 µM
